# Reference: patent publication US6441028B2, “Microbicidal compositions” (Bayer Aktiengesellschaft, priority 1995, dated 2002)
# Key:
# Puccinia recondita = assay: Activity against Puccinia recondita in wheat (residual-protective and systemic action); type: in vivo; details: mixture of the labelled component I with component II; wheat; a) spray 0.02% of active ingredient, b) 0.006% based on soil volume; assessed 12 days after infection
# Erysiphe graminis = assay: Activity against Erysiphe graminis in barley (residual-protective and systemic action); type: in vivo; details: mixture of the labelled component I with component II; barley; a) spray 0.02% of active ingredient, b) 0.002% based on soil volume; assessed 12 days after infection
# Procedure: The infected plants are placed in a greenhouse at 22°. The fungus infestation is assessed 12 days after the infection. […] 48 hours later, the plants are dusted with conidia of the fungus. The infected plants are placed in a greenhouse at 22°. The fungus infestation is assessed 12 days after the infection.
# Fusarium nivale = assay: Activity against Fusarium nivale in rye (seed dressing, field); type: in vivo; details: mixture of the labelled component I with component II, rye cv. Tetrahell seed dressing, 20 or 6 ppm of a.i. based on seed weight
# Procedure: which has been infected naturally with Fusarium nivale is dressed with the test fungicide in a roller mixer, the following concentrations being used: 20 or 6 ppm of a.i. (based on the seed weight). The infected and treated rye is sown in the open in October in plots of 3 m length and 6 seed rows, using a seed drill. 3 replications per concentration. Until the disease level is evaluated, the experimental field is subjected to the field conditions of normal crop management (preferably in a region with unbroken snow cover during the winter months). To assess the phytotoxicity, seedling emergence is scored in autumn and plant density/tillering in spring. To assess the activity of the active ingredient, the percentage of Fusarium-infected plants is evaluated early in the year, immediately after the snows have melted.
# Phytophthora = details: mixture of the labelled component I, in particular in combination with metalaxyl (II A), benalaxyl (II D) or R-metalaxyl (II B); potato (Bintje); a) spray 0.02% of active ingredient, b) 0.002% based on soil volume; 5 days incubation
# Procedure: 2-3 week old potato plants (Bintje variety) are grown for 3 weeks and then sprayed with a spray mixture (0.02% of active ingredient) prepared with a wettable powder of the active ingredient. After 24 hours, the treated plants are infected with a sporangia suspension of the fungus. The fungus infestation is assessed after the infected plants have been incubated for 5 days at a relative atmospheric humidity of 90-100% and 20° C.
# A spray mixture (0.002% of active ingredient based on the soil volume) prepared with a wettable powder of the active ingredient is poured next to 2-3 week old potato plants (Bintje variety) which have been grown for 3 weeks. […] After 48 hours, the treated plants are infected with a sporangia suspension of the fungus. Fungus infestation is assessed after the infected plants have been incubated for 5 days at a relative atmospheric humidity of 90-100% and 20° C.
# Plasmopara viticola = assay: Activity against Plasmopara viticola in grapevines; details: mixture of the labelled component I with component II = ofurace (II E), oxadixyl (II F), or in particular metalaxyl (II A) or R-metalaxyl (II B); grapevine seedlings; 0.02% of active ingredient; assessed 6 days after infection
# Procedure: Grapevine seedlings at the 4-to-5-leaf stage are sprayed to drip point with an aqueous spray mixture prepared with a wettable powder of the active ingredient mixture (0.02% of active ingredient) and, 24 hours later, infected with a sporangia suspension of the fungus. The fungus infestation is assessed 6 days after infection, during which time a relative atmospheric humidity of 95 to 100% and a temperature of 20° are maintained.
# Botrytis cinerea = assay: Activity against Botrytis cinerea on apple fruits (residual-protective action); type: in vivo; details: mixture of the labelled component I with component II = furalaxyl (II C), metalaxyl (II A) or R-metalaxyl (II B); damaged apples; 0.02% of active ingredient; one week incubation
# Procedure: The treated fruits are subsequently inoculated with a spore suspension of the fungus and incubated for one week at high atmospheric humidity and approximately 20° C. The fungicidal activity of the test substance is deduced from the number of the sites of damage where rotting has been observed.
# Phytophthora infestans = type: in vivo; details: mixture of the labelled component I with component II = oxadixyl (II F), ofurace (II E), or in particular metalaxyl (II A) or R-metalaxyl (II B); tomato cv. Roter Gnom; a) curative 200 ppm, b) preventive-systemic 60 ppm relative to soil volume
# Cercospora arachidicola = assay: Residual-protective action against Cercospora arachidicola in groundnuts; type: in vivo; details: mixture of the labelled component I with component II; groundnut plants; 0.02% of active ingredient; assessed 12 days after infection
# Procedure: The plants are incubated for 72 hours at 21° and high atmospheric humidity and subsequently placed in a greenhouse until the typical foliar lesions appear. The activity of the active ingredient is assessed 12 days after the infection on the basis of number and size of the foliar lesions.
# Septoria nodorum = assay: Activity against Septoria nodorum in wheat; type: in vivo; details: mixture of the labelled component I with component II; wheat 3-leaf stage; 60 ppm of a.i.; assessed 13 days after infection
# Procedure: 13 days after the infection, the fungus infestation is assessed.
SMILES,synergistic effect of active ingredient mixture (fungus infestation) (Puccinia recondita),synergistic effect of active ingredient mixture (fungus infestation) (Erysiphe graminis),synergistic effect of active ingredient mixture (percentage of Fusarium-infected plants) (Fusarium nivale),synergistic effect of active ingredient mixture (fungus infestation) (Phytophthora),synergistic effect of active ingredient mixture (fungus infestation) (Plasmopara viticola),activity of active ingredient mixture (number of sites of damage with rotting) (Botrytis cinerea),synergistic effect of active ingredient mixture (number and size of foliar lesions) (Phytophthora infestans),activity of active ingredient mixture (number and size of foliar lesions) (Cercospora arachidicola),activity of active ingredient mixture (fungus infestation) (Septoria nodorum)
"CON=C(C(=O)OC)c1ccccc1CON=C(C)c1ccc2c(c1)OC(F)(F)O2 [(6), methyl 2-[α-{[(α-methyl-3,4-(difluoromethylenedioxy)benzyl)imino]-oxy}-o-tolyl]glyoxylate O-methyloxime]",good synergistic effect,good synergistic effect,good synergistic effect,good synergistic effect,marked synergistic effect,–,–,–,–
"CON=C(C(=O)OC)c1ccccc1CON=C(c1ccc(F)cc1)C1CC1 [(09), methyl 2-[α-{[(α-cyclopropyl-4-fluorobenzyl)imino]oxy}-o-tolyl]glyoxylate O-methyloxime]",good synergistic effect,good synergistic effect,–,–,–,markedly increased activity,–,–,–
"COC=C(C(=O)OC)c1ccccc1CON=C(C)c1ccc2c(c1)OCO2 [(12), methyl 3-methoxy-2-[α-{[(α-methyl-3,4-methylenedioxybenzyl)imino]oxy}-o-tolyl]acrylate]",–,–,–,good synergistic effect,marked synergistic effect,–,good synergistic effect,–,–
"CON=C(C(=O)OC)c1ccccc1CON=C(c1ccc(Cl)cc1)C1CC1 [(15), methyl 2-[α-{[(α-cyclopropyl-4-chlorobenzyl)imino]oxy}-o-tolyl]glyoxylate O-methyloxime]",good synergistic effect,good synergistic effect,–,good synergistic effect,marked synergistic effect,markedly increased activity,good synergistic effect,markedly increased activity,–
"COC=C(C(=O)OC)c1ccccc1CON=C(C)c1cccc(OC(F)(F)F)c1 [(18), methyl 3-methoxy-2-[α-{[(α-methyl-3-trifluoromethoxybenzyl)imino]oxy}-o-tolyl]acrylate]",good synergistic effect,good synergistic effect,good synergistic effect,good synergistic effect,marked synergistic effect,markedly increased activity,–,markedly increased activity,–
"COC=C(C(=O)OC)c1ccccc1CON=C(C)c1cccc(C(F)(F)F)c1 [(24), methyl 3-methoxy-2-[α-{[(α-methyl-3-trifluoromethylbenzyl)imino]oxy}-o-tolyl]acrylate]",–,good synergistic effect,–,good synergistic effect,–,markedly increased activity,good synergistic effect,markedly increased activity,markedly increased activity
"CON=C(C(=O)OC)c1ccccc1CON=C(C)c1ccc(Cl)cc1 [(25), methyl 2-[α-{[(α-methyl-4-chlorobenzyl)imino]oxy}-o-tolyl]glyoxylate O-methyloxime]",–,good synergistic effect,–,–,–,–,–,–,markedly increased activity
"COC=C(C(=O)OC)c1ccccc1CON=C(C)c1ccc(Cl)cc1 [(26), methyl 3-methoxy-2-[α-{[(α-methyl-4-chlorobenzyl)imino]oxy}-o-tolyl]acrylate]",–,–,good synergistic effect,–,–,–,–,markedly increased activity,–
"COC=C(C(=O)OC)c1ccccc1CON=C(C)c1ccc2c(c1)OC(F)(F)O2 [(29), methyl 3-methoxy-2-[α-{[(α-methyl-3,4-(difluoromethylenedioxy)benzyl)-imino]oxy}-o-tolyl]acrylate]",good synergistic effect,–,–,–,–,–,–,–,–
"CON=C(C(=O)OC)c1ccccc1CON=C(C)c1cccc(OC(F)(F)F)c1 [(32), methyl 2-[α-{[(α-methyl-3-trifluoromethoxybenzyl)imino]oxy}-o-tolyl]glyoxylate O-methyloxime]",good synergistic effect,good synergistic effect,good synergistic effect,good synergistic effect,marked synergistic effect,markedly increased activity,good synergistic effect,markedly increased activity,markedly increased activity
"CON=C(C(=O)OC)c1ccccc1CON=C(C)c1cccc(C(F)(F)F)c1 [(35), methyl 2-[α-{[(α-methyl-3-trifluoromethylbenzyl)imino]oxy}-o-tolyl]glyoxylate O-methyloxime]",good synergistic effect,good synergistic effect,–,good synergistic effect,marked synergistic effect,markedly increased activity,good synergistic effect,–,markedly increased activity
"COC=C(C(=O)OC)c1ccccc1CON=C(c1ccc(Cl)cc1)C1CC1 [(36), methyl 3-methoxy-2-[α-{[(α-cyclopropyl-4-chlorobenzyl)imino]oxy}-o-tolyl]acrylate]",–,good synergistic effect,–,–,–,markedly increased activity,good synergistic effect,markedly increased activity,markedly increased activity
CON=C(C(=O)OC)c1ccccc1CON=C(c1ccc(C(F)(F)F)cc1)C1CC1 [(37)],–,good synergistic effect,–,–,–,–,–,–,–
"CON=C(C(=O)OC)c1ccccc1CON=C(c1ccc(OC(F)(F)F)cc1)C1CC1 [(38), methyl 2-[α-{[(α-cyclopropyl-4-trifluoromethoxybenzyl)imino]oxy}-o-tolyl]glyoxylate O-methyloxime]",–,–,good synergistic effect,–,–,–,–,markedly increased activity,–
